Earlier results on 1 molecule are cited in patent US20050084931A1, “Human prostaglandin DP receptor variants and methods of using same” (priority 2003, published 2005).

Molecules are shown by their SMILES. pKd: −log10 of the molar value. Read-outs that look alike come from different tables or passages of the source.

The target of this series is T1, human DP receptor (Homo sapiens, UniProt Q13258).
T1 sequence (Q13258 1-359): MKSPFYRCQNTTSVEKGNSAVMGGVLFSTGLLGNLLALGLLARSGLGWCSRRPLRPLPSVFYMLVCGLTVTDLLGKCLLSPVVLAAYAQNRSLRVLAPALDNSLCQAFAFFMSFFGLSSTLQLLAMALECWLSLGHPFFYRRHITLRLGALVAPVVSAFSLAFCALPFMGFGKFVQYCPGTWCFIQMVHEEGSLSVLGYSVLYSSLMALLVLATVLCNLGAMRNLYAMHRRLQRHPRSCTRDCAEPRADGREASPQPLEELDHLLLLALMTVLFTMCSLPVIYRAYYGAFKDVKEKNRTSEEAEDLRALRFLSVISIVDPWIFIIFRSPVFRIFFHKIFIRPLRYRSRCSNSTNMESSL

In the case of `CCCCC[C@H](O)/C=C/[C@H]1C(=O)C[C@H](O)[C@@H]1C/C=C\CCCC(=O)O` [PGD2, Prostaglandin D2], the pKd runs as follows: (high-affinity site, read-out: high-affinity binding site) 9.52; (read-out: lower-affinity site) about 7.89.
